The source of these data is patent US20230012368A1 (Hoffmann-La Roche Inc., priority 2018, published 2023).

Structures can show the parent of a compound that is named as a salt. Where two headings read alike, the source gives them in different places.

This assay deals with Acinetobacter baumannii ATCC 17978. In words: Antimicrobial susceptibility testing: 90% growth inhibitory concentration (IC90) determination. The assay is classed as cell-based. The following applies: 90% growth inhibitory concentration, Acinetobacter baumannii ATCC17978, Iso-Sensitest broth, OD 600 nm over 16h, read-out: ATCC17978 IC90. A digest of the protocol:
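Compounds serially twofold diluted (e.g. 50 to 0.097 μM final) in Iso-Sensitest broth, inoculated at ~5×10^(5) CFU/ml, incubated at 35±2° C. OD600 read every 20 minutes over 16h. IC90 taken as concentration inhibiting 90% of growth during logarithmic phase.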

[1] abbreviates: Acinetobacter baumannii, ATCC17978, 16 h.

`COc1ccc(-c2cnc3c(Nc4ccc(C(=O)NCCCCN)c(C)c4)nccn23)c(F)c1F` [Example 513, N-(4-aminobutyl)-4-((3-(2,3-difluoro-4-methoxyphenyl)imidazo[1,2-a]pyrazin-8-yl)amino)-2-methylbenzamide hydrochloride]: under setting [1], the IC90 was 50 nM.
For `C#CCNC(=O)c1ccc(Nc2nccn3c(-c4ccc(OC)c(F)c4F)cnc23)cc1CC` [Example 541, 4-[[3-(2,3-difluoro-4-methoxyphenyl)imidazo[1,2-a]pyrazin-8-yl]amino]-2-ethyl-N-prop-2-ynylbenzamide], under setting [1], the IC90 was 62 nM.
For `CCc1cc(Nc2nccn3c(-c4ccc(OC)c(F)c4F)cnc23)ccc1C(=O)NCC(O)CN` (centres unmarked) [Example 334, N-(3-amino-2-hydroxypropyl)-4-[[3-(2,3-difluoro-4-methoxyphenyl)imidazo[1,2-a]pyrazin-8-yl]amino]-2-ethylbenzamide], the IC90 under setting [1] stood at 350 nM.
Consider `COc1ccc(-c2cnc3c(Nc4ccc(C(=O)N[C@H](C)CNC(=N)C(C)C)c(Cl)c4)nccn23)c(F)c1F` [Example 509, (R)-2-chloro-4-((3-(2,3-difluoro-4-methoxyphenyl)imidazo[1,2-a]pyrazin-8-yl)amino)-N-(1-isobutyrimidamidopropan-2-yl)benzamide], for which the IC90 under setting [1] amounted to 110 nM.
On to `CCc1cc(Nc2nccn3c(-c4ccc(Oc5nccc(OC)n5)c(F)c4F)cnc23)ccc1C(=O)N[C@@H](C)CN` [Example 462, (S)-N-(1-aminopropan-2-yl)-4-((3-(2,3-difluoro-4-((4-methoxypyrimidin-2-yl)oxy)phenyl)imidazo[1,2-a]pyrazin-8-yl)amino)-2-ethylbenzamide], for which the IC90 under setting [1] was 520 nM.
Take `CCc1cc(Nc2nccn3c(-c4ccc(OCC#N)c(F)c4F)cnc23)ccc1C(=O)NCCCN` [Example 299, N-(3-aminopropyl)-4-[[3-[4-(cyanomethoxy)-2,3-difluorophenyl]imidazo[1,2-a]pyrazin-8-yl]amino]-2-ethylbenzamide;2,2,2-trifluoroacetic acid]: the IC90 under setting [1] was 180 nM.
On to `CCc1cc(Nc2nccn3c(-c4ccc(OCC#N)c(F)c4F)cnc23)ccc1C(=O)NCCNC(=O)[C@@H](N)CCCCN` [Example 143, 4-[[3-[4-(cyanomethoxy)-2,3-difluoro-phenyl]imidazo[1,2-a]pyrazin-8-yl]amino]-N-[2-[[(2S)-2,6-diaminohexanoyl]amino]ethyl]-2-ethyl-benzamide formate], for which the IC90 under setting [1] turned out to be 160 nM.
`CCc1cc(Nc2nccn3c(-c4ccc(OC)c(F)c4F)cnc23)ccc1C(=O)N[C@@H](CC)CN` [Example 489, N-[(1S)-1-(aminomethyl)propyl]-4-[[3-(2,3-difluoro-4-methoxy-phenyl)imidazo[1,2-a]pyrazin-8-yl]amino]-2-ethyl-benzamide; formic acid]: the IC90 under setting [1] came to 500 nM.
For `Cn1cc(CNC(=O)c2ccc(Nc3nccn4c(-c5ccc(OCC#N)c(F)c5F)cnc34)cc2Cl)ccc1=O` [Example 87, 2-chloro-4-[[3-[4-(cyanomethoxy)-2,3-difluoro-phenyl]imidazo[1,2-a]pyrazin-8-yl]amino]-N-[(1-methyl-6-oxo-3-pyridyl)methyl] benzamide], under setting [1], the 90% effect concentration (IC90) stood at 80 nM.
Consider `COc1ccc(-c2cnc3c(Nc4ccc(C(=O)NCCCCN)c(C)c4)nccn23)cc1` [Example 194, N-(4-aminobutyl)-4-[[3-(4-methoxyphenyl)imidazo[1,2-a]pyrazin-8-yl]amino]-2-methylbenzamide;hydrochlo-ride], for which, under setting [1], the IC90 worked out at 360 nM.
Regarding `COc1ccc(-c2cnc3c(Nc4ccc(C(=O)N(C)CC5CCOCC5)c(C)c4)nccn23)cc1F` [Example 35, 4-[[3-(3-fluoro-4-methoxy-phenyl)imidazo[1,2-a]pyrazin-8-yl]amino]-N,2-dimethyl-N-(tetrahydropyran-4-ylmethyl)benzamide; 2,2,2-trifluoroacetic acid], the IC90 stood at 1200 nM.

As usually defined, the IC90 is the point of the concentration-response curve where the effect stands at 90%.
